# Measured values from patent publication US6365166B2, “Gel formulations for topical drug delivery” (priority 1996, dated 2002).
# Read-outs that look alike come from different tables or passages of the source.
# What was measured:
# [1] = system: interferon and tumor necrosis factor; conditions: rats, oral administration; cited from earlier work
# herpes simplex virus = conditions: subcutaneously, dermally or intravaginally 24 hours before infection; cited from earlier work
# [2] = system: interferon and tumor necrosis factor; conditions: mice, oral administration; cited from earlier work
# [3] = Solubility of the drug in gel formulations of the invention; format: physicochemical
# [4] = system: human peripheral blood mononuclear cells; conditions: cultures of human peripheral blood mononuclear cells; cited from earlier work
smiles,measurement,setting,value
"CCOCc1nc2c(N)nc3ccccc3c2n1CC(C)(C)O [4-amino-2-ethoxymethyl-α,α-dimethyl-1H-imidazo[4,5-c]quinoline-1-ethanol]",induction of interferon and tumor necrosis factor,[1],induce interferon and tumor necrosis factor
same,antiviral activity,herpes simplex virus,antiviral activity
same,induction of interferon and tumor necrosis factor,[2],induce interferon and tumor necrosis factor
same,solubility in formulations of the invention,[3],sufficiently soluble
same,solubility in formulations of the invention,"[3]; listed as 4-Amino-2-ethoxymethyl-α,α-dimethyl-1H-imidazo[4,5-c]quinoline-1-ethanol",substantial solubility
same,cytokine induction,[4],"induce interferon-α, tumor necrosis factor, interleukin-1α, interleukin-1β, interleukin-6 and interleukin-8"
